Results taken from patent publication US5242926A, “Therapeutic composition for treating hyperthyroidism” (priority 1992, dated 1993).
“Also recorded” adds a separate entry of the source.

Columns and labels:
[1] = tested on: hyperthyroidism in rats (TSH, T3, T4, FT3 and FT4 in the bloods); assay: Effect of PBT and THP on serum TSH, T3, T4, FT3, FT4, L-T4 induced hyperthyroidism rats (Experiment 3); format: in vivo, female Sprague-Dawley rats
Experimental: (§1) The female Sprague-Dawley rats, each weighs 260±15 grams, are divided into 5 groups of 6 rats, each rat being subcutaneously injected (s.c.) with L-T4 300 μg/kg daily for continuous 12 days to induce hyperthyroidism in each rats. […] The control group is treted with saline. After continuous treatment of 10 days as described above, each rat is injected (I.P.) with pentobarbitol 50 mg/kg and narcotized on the eleventh day, and then extracted the arterial blood for measuring concentrations of TSH, T3, T4, FT3 and FT4 in the bloods.

[2] = tested on: TSH, T3, T4, FT3 and FT4 in bloods; assay: Effect of PBT and THP on serum TSH, T3, T4, FT3, FT4, normal rats (Experiment 3); format: in vivo, female Sprague-Dawley rats
Experimental: The female Sprague-Dawley rats, each weights 270±15 grams, are divided into 5 groups of 6 rats, for following daily treatment for continuous 10 days, except a normal group for control.
On the eleventh days, each rat is injected (I.P.) with pentobarbital 50 mg/kg and narcotized for extracting arterial blood which is settled for 2 hours at room temperature and centrifuged at 2500 rpm for 10 minutes to separate the serum. The concentrations of TSH, T3, T4, FT3 and FT4 in bloods are analyzed by RIA methods. The normal control group is treated with saline and analyzed by the same methods.

thyroid follicle cells = assay: Thyroid pathological section, H-E stain, normal rats (Experiment 1); format: in vivo, female Sprague-Dawley rats; settings: 50 mg/kg daily p.o., 14 days
[3] = tested on: blood cholesterol and triglyceride in rats; assay: Effects of THP on blood cholesterol, triglyceride and T4 in L-T4 induced hyperthyroidism rats (Experiment 5); format: in vivo, rats (Sprague-Dawley); settings: 10 days
rat thyroid = assay: Effect of each extracted layer of Corydalis on rat thyroid: body and thyroid weight, normal rats (Experiment 1); settings: 50 mg/kg daily p.o., 14 days, vs control
Experimental: ICR mice may be used as testing animals in this invention, each having a weight of 18-25 grams. Sprague-Dawley rats each having a weight of 240±10 grams may also be used in this invention.
The mice or rats are placed in a metal cage by feeding 5 mice per group in each cage with solid foods and distilled water at least 1 week before performing the experiment at […] and humidity of 55±5%.
(§2) On the 15th day, each rat is intraperitoneally injected with pentobarbital 50 mg/kg and narcotized. The rat abdominal cavity is cut to take the thyroid out for weighing and for examining pathological section, which is stained with H-E stain to facilitate observation of pathologic changes.

[4] = tested on: thyroid function of normal rats; assay: Effect of dl-tetrahydropalmatine (THP) on thyroid function of normal rats (Experiment 4)
Experimental: as §2
The method of experiment 1 is repeated by daily treating dl-tetrahydropalmatine (THP) 2.5 mg/kg, 5.0 mg/kg and 10 mg/kg (I.P.) respectively for continuous 14 days.

[5] = tested on: hyperthyroidism in rats (TSH, T3, T4, free T3 and free T4 in the serum); assay: Serum TSH, T3, T4, FT3, FT4 by RIA, L-T4 induced hyperthyroidism rats (Experiment 2); format: in vivo, female Sprague-Dawley rats
Experimental: The female Sprague-Dawley rats each having a weight of 250±10 grams are subcutaneously injected (S.C.) for 12 days with a daily dose of 300 μg/kg for each rat to induce hyperthyroidism. […] Then, the rat abdominal cavity is cut to extract arterial blood which is settled for 2 hours at room temperature and is centrifuged at 2500 rpm for 10 minutes for separating the serum.
The concentrations of TSH, T3, T4, free T3 and free T4 in the serum by RIA methods.

[6] = tested on: rat thyroid, pituitary and suprarenal gland; assay: Effect of THP on rat thyroid, pituitary and suprarenal gland weight (Experiment 6); format: in vivo, rats (Sprague-Dawley); settings: PTU, 14 days
[7] = tested on: blood cholesterol and triglyceride in rats; assay: Effects of THP on blood cholesterol, triglyceride and T4 in L-T4 induced hyperthyroidism rats (Experiment 5); format: in vivo, rats (Sprague-Dawley); settings: 10 days; remark: listed apart in the source
Experimental: as §1

[8] = L-T4 induced hyperthyroidism rats, PTU 5 mg/kg p.o., 10 days
[9] = hyperthyroidism rats, PTU 5.0 mg/kg
[10] = L-T4 induced hyperthyroidism rats, THP 5 mg/kg i.p., 10 days
[11] = hyperthyroidism rats, THP 5 mg/kg, I.P.
[12] = THP 50 mg/kg [sic], i.p., 10 days
[13] = hyperthyroidism rats, THP 2.5 mg/kg i.p.
[14] = hyperthyroidism rats, THP 5 mg/kg i.p.
[15] = hyperthyroidism rats, THP 10.0 mg/kg i.p.

Structure (SMILES): CCCc1cc(=O)[nH]c(=S)[nH]1 [PTU, propylthiouracil]
- FT3 [1, 8]: 2.01 ± 0.25 ng/dL
- FT4 [1, 8]: 3.24 ± 0.98 ng/dL
- T3 [1, 8]: 30.25 ± 3.25 ng/dL
- T4 [1, 8]: 1.95 ± 0.25 µg/dL
- TSH [1, 8]: 3.98 ± 0.51 μu/ml
- effect on T3, T4, FT3 and FT4 (in words) ([1]; hyperthyroidism rats, PTU 5 mg/kg, P.O.): may decrease the T3 (P<0.001), T4 (P<0.001), FT3 (P<0.001) and FT4 (P<0.001)
- TSH ([1]; hyperthyroidism rats, PTU 5 mg/kg, P.O., increase from 0.99±0.11, P<0.001): 3.98 ± 0.51 µg/mL
- effect on T3, T4, FT3 and FT4 (in words) ([2]; PTU 5 mg/kg P.O.): will remarkably reduce T3 (P<0.001), T4 (P<0.001), FT3 (P<0.001) and FT4 (P<0.001)
- TSH ([2]; PTU 5 mg/kg P.O., increase from 2.28±0.16 μu/ml, P<0.001): 4.54±0.01 μm/ml
- FT3 ([2]; PTU 5 mg/kg p.o., 10 days): 0.37 ± 0.10 ng/dL
- FT4 ([2]; PTU 5 mg/kg p.o., 10 days): 0.35 ± 0.09 ng/dL
- T3 ([2]; PTU 5 mg/kg p.o., 10 days): 31.77 ± 3.10 µg/dL
- T4 ([2]; PTU 5 mg/kg p.o., 10 days): 0.92 ± 0.14 µg/dL
- TSH ([2]; PTU 5 mg/kg p.o., 10 days): 4.54 ± 0.41 μu/ml
- pathologic section of the thyroid (in words) (thyroid follicle cells): remarkable expansion of the thyroid follicle cells and their colloidal loss; also recorded: will cause the formation of follicle cells, and loss of colloid
- Cholesterol [3, 9]: 73.9 ± 3.2 mg/dL
- T4 [3, 9]: 1.2 ± 0.2 µg/dL
- Triglyceride [3, 9]: 35.6 ± 3.2 mg/dL
- changes in thyroid weight (in words) (rat thyroid): clearly shows an increase thyroid weight (P<0.001); also recorded: may increase thyroid weight
- effect on T3, T4, FT3 and FT4 (in words) ([4]; PTU): reduces the T3, T4, FT3 and FT4
- effect on TSH (in words) ([4]; PTU): increases the TSH concentration
- effect on thyroid follicle cells and colloid (in words) ([4]; PTU): expand thyroid follicle cells and cause colloidal loss
- FT3 ([4]; PTU 5.0 mg/kg): 0.4 ± 0.1 ng/dL
- FT4 ([4]; PTU 5.0 mg/kg): 0.4 ± 0.1 ng/dL
- T3 ([4]; PTU 5.0 mg/kg): 31.8 ± 3.1 ng/dL
- T4 ([4]; PTU 5.0 mg/kg): 0.9 ± 0.1 µg/dL
- TSH ([4]; PTU 5.0 mg/kg): 4.5 ± 0.4 μu/ml
- effect on T3, T4, FT3 and FT4 (in words) ([5]; PTU 5 mg/kg): may remarkably reduce the concentrations of T3 (P <0.001), T4 (P<0.001), FT3 (P<0.01) and FT4 (P<0.001)
- effect on TSH (in words) ([5]; PTU 5 mg/kg): remarkably increase TSH (P<0.01)
- FT3 ([5]; PTU 5 mg/kg p.o.): 0.44 ± 0.02 ng/dL
- FT4 ([5]; PTU 5 mg/kg p.o.): 0.47 ± 0.04 ng/dL
- T3 ([5]; PTU 5 mg/kg p.o.): 17.92 ± 1.43 ng/dL
- T4 ([5]; PTU 5 mg/kg p.o.): 1.11 ± 0.02 µg/dL
- TSH ([5]; PTU 5 mg/kg p.o.): 3.98 ± 0.40 µg/mL
- effect on follicle cells and colloid (in words) [6]: expansion of follicle cells and colloidal loss
- effect on thyroid weight (in words) [6]: increase of thyroid weight

Structure (SMILES): COc1cc2c(cc1OC)C1Cc3ccc(OC)c(OC)c3CN1CC2 (racemic) [THP, dl-tetrahydropalmatine]
- FT3 [1, 10]: 1.42 ± 0.62 ng/dL
- FT4 [1, 10]: 5.27 ± 1.05 ng/dL
- T3 [1, 10]: 42.36 ± 4.25 ng/dL
- T4 [1, 10]: 4.91 ± 0.17 µg/dL
- TSH [1, 10]: 0.77 ± 0.10 μu/ml
- effect on T3, T4, FT3 and FT4 (in words, summary) ([1]; hyperthyroidism rats): may markedly decrease the concentration of T3, T4, FT3 and FT4
- effect on TSH (in words, summary) ([1]; hyperthyroidism rats): will not influence the TSH concentration in the blood
- effect on T3, T4, FT3 and FT4 (in words) [1, 11]: will greatly reduce T3 (P<0.01), T4 (P<0.05), FT3 (P<0.01) and FT4 (P<0.01)
- effect on TSH (in words) [1, 11]: no remarkable influence on TSH concentration
- pharmacological effect relative to PBT (in words) ([1]; hyperthyroidism rats, THP dosage much smaller than PBT dose): not less than that of the PBT
- T4 ([7]; THP 2.5 mg/kg i.p.): 3.3 ± 0.4 µg/dL
- T4 ([7]; THP 5 mg/kg i.p.): 3.1 ± 0.5 µg/dL
- T4 ([7]; THP 10.0 mg/kg i.p.): 3.2 ± 0.5 µg/dL
- FT3 [2, 12]: 1.18 ± 0.01 ng/dL
- FT4 [2, 12]: 1.97 ± 0.14 ng/dL
- T3 [2, 12]: 49.05 ± 2.45 µg/dL
- T4 [2, 12]: 2.32 ± 0.25 µg/dL
- TSH [2, 12]: 1.89 ± 0.13 μu/ml
- effect on cholesterol compared with PTU (in words) ([3]; THP i.p.): increases the cholesterol by a much smaller amount than PTU
- Cholesterol [3, 13]: 57.5 ± 3.5 mg/dL
- Triglyceride [3, 13]: 29.5 ± 3.5 mg/dL
- Cholesterol [3, 14]: 58.5 ± 3.4 mg/dL
- Triglyceride [3, 14]: 31.1 ± 5.4 mg/dL
- Cholesterol [3, 15]: 56.5 ± 4.6 mg/dL
- Triglyceride [3, 15]: 30.6 ± 5.1 mg/dL
- effect on triglyceride compared with PTU (in words) ([3]; hyperthyroidism rats, THP i.p.): may reduce the triglyceride of the hyperthyroidism rats to be superior to PTU
- FT3 ([4]; THP 2.5 mg/kg i.p., 14 days): 1.3 ± 0.1 ng/dL
- FT4 ([4]; THP 2.5 mg/kg i.p., 14 days): 1.7 ± 0.5 ng/dL
- T3 ([4]; THP 2.5 mg/kg i.p., 14 days): 56.8 ± 3.1 ng/dL
- T4 ([4]; THP 2.5 mg/kg i.p., 14 days): 2.3 ± 0.5 µg/dL
- TSH ([4]; THP 2.5 mg/kg i.p., 14 days): 1.9 ± 0.1 μu/ml
- FT3 ([4]; THP 5.0 mg/kg i.p., 14 days): 1.2 ± 0.2 ng/dL
- FT4 ([4]; THP 5.0 mg/kg i.p., 14 days): 2.1 ± 0.2 ng/dL
- T3 ([4]; THP 5.0 mg/kg i.p., 14 days): 58.8 ± 3.7 ng/dL
- T4 ([4]; THP 5.0 mg/kg i.p., 14 days): 2.5 ± 0.2 µg/dL
- TSH ([4]; THP 5.0 mg/kg i.p., 14 days): 2.5 ± 0.4 μu/ml
- FT4 ([4]; THP 10.0 mg/kg i.p., 14 days): 1.9 ± 1.5 ng/dL
- T3 ([4]; THP 10.0 mg/kg i.p., 14 days): 49.1 ± 2.5 ng/dL
- T4 ([4]; THP 10.0 mg/kg i.p., 14 days): 2.3 ± 0.3 µg/dL
- TSH ([4]; THP 10.0 mg/kg i.p., 14 days): 1.9 ± 0.1 μu/ml
- effect on T3, T4, FT3, FT4 and TSH (in words) ([4]; THP 2.5, 5.0 and 10 mg/kg i.p., 14 days): no influence on the concentrations of T3, T4, FT3, FT4 and TSH
